According to patent US11197911B2, “Peptidylic inhibitors targeting C9ORF72 hexanucleotide repeat-mediated neurodegeneration” (The Chinese University of Hong Kong, priority 2016, dated 2021):
Entries after “also recorded” stand apart in the source; their conditions may differ. No end group written: not given here.

Columns and labels:
[1] = tested on: expanded CAG repeat-mediated nucleolar stress; settings: polyQ disease; inventors' previous work (ref. 20); cited from earlier work
[2] = tested on: (GGGGCC)66-expressing SK-N-MC cells; assay: LDH cytotoxicity assay, (GGGGCC)66-induced cell death; type: cell-based; settings: for suppression of (GGGGCC)66-induced cell death compared with P3L (structure-activity relationship study): 10 μM, single alanine substitution mutants; for effect on (GGGGCC)66-induced cell death (LDH enzyme activity in medium): 0.1, 1, 10 and 20 μM peptide
Protocol: SK-N-MC cells were kindly provided by Prof. Dobrila D. Rudnicki (Johns Hopkins University, USA). […] Leonard Petrucelli (Mayo Clinic, USA).
For IC50 detection, various amount of TAT-P3L, 0.1, 0.5, 1, 10, 50, 100, 500, 1,000 and 10,000 nM were added to individual culture wells after transfection. Forty eight hours after treatment, LDH enzyme activity in the cell culture medium was measured as described before. Experimental groups were normalized to the untransfected control. After normalization, data were analyzed using the dose response-inhibition curve (nonlinear regression-variable slope) to determine the IC50 value (Prism6 software, GraphPad Software, Inc.).

UAS-(GGGGCC)36 flies [3] = assay: External eye assay; type: in vivo, Drosophila; settings: GMR-Gal4/UAS-(GGGGCC)36 flies; 100 μM feeding; 1 day-old adults
Protocol: (§1) Flies were raised at 25° C. on cornmeal medium supplemented with dry yeast. For […], third instar larvae were feed with 100 μM of TAT-P3L or TAT-P3LS1 dissolved in 2% sucrose solution for 2 h and then continued to culture in standard fly food. Eye images of 1 day-old adult of UAS-(GGGGCC)3 or UAS-(GGGGCC)36 flies were captured using a SPOT Insight CCD camera (Diagnostic instruments Inc.) on an Olympus SZX-12 stereomicroscope.

nucleophosmin (B23) = assay: Immunostaining, nucleolar stress marker B23 localization; type: cell-based; settings: (GGGGCC)66-expressing SK-N-MC cells; 10 μM; 48 h
Protocol: (§2) SK-N-MC cells were seeded and grown on glass coverslips at a density of 0.8×10^5 in 24-well plate. Forty eight hours after treatment, cells were fixed with 4% paraformaldehyde followed by three times wash with 1×PBS. Cells were then permeabilized in 0.5% Triton X-100 for 10 min at room temperature followed by three washes with 1×PBS. After washing step, cells were blocked with 5% BSA in 1×PBS for 1 h at room temperature. The NCL (1:500, Abcam) or B23 (1:500, Abcam) antibody was then applied with 5% BSA (1:500) 2 h at room temperature. Once the primary antibody was removed, Cells were washed three times with 1×PBS and incubated with an anti-rabbit Cy3 or an anti-mouse Cy3 secondary antibody (1:400, Jackson Labs) 1 h at room temperature. After washing with 1×PBS, nuclei were counterstained with Hoechst 33342 (1 μg/ml, Thermo Fisher Scientific) prior to mounting coverslips. Images were obtained on an OLYMPUS FV1000 IX81-TIRF confocal microscope. A single focal plan was obtained through the centre of the nucleus. The method of quantification of NCL and B23 nuclear area fold change was described previously^7. In order to quantify both dispersed NCL and dense nucleolar NCL, a threshold setting in ImageJ ranging from 25-100 was used to measure the pixel area of NCL relative to the area of the nucleus outlined by the Hoechst staining. […]

UAS-(GGGGCC)36 flies [4] = assay: Lifespan assay; type: in vivo, Drosophila; settings: elavGS flies, RU486 200 μM plus peptide 50 μM in food
UAS-(GGGGCC)36 flies [5] = assay: Climbing ability assay; type: in vivo, Drosophila; settings: elavGS flies, RU486 200 μM plus peptide 50 μM in food, 10, 15, 20 and 25 dpe
Protocol: Fly climbing ability was analyzed by negative geotaxis.

NCL = assay: Immunostaining, nucleolar stress marker NCL localization; type: cell-based; settings: (GGGGCC)66-expressing SK-N-MC cells; 10 μM; 48 h
Protocol: as §2

UAS-(GGGGCC)3 flies [6] = settings: 50 μM in food
Protocol: For lifespan and climbing ability assay, flies of 2dpe were feed with food containing different drug combination including vehicle control (ethanol), Mifepristone (RU486, 200 μM), RU486 (200 μM) plus TAT-P3L (50 μM), and RU486 (200 μM) plus TAT-P3LS1 (50 μM). Mifepristone (RU486, 200 μM) was used to induce transgene expression. For climbing ability assay, 10-15 flies were allocated to each experimental vials (total of 90-100 flies per condition) and monitored every 5 days. Fly climbing ability was analyzed by negative geotaxis. Groups of ∞15 flies were anesthetized and placed in a vertical plastic column. After 1 h recovery, flies were banged to the bottom, and then scored for climbing ability as the percentage of flies remaining at the bottom (<2 cm) at 25 s. Three trials were performed at 3 min intervals in each experiment.

[7] = tested on: GGGGCC RNA foci in (GGGGCC)66-expressing SK-N-MC cells; assay: RNA fluorescence in situ hybridization, GGGGCC RNA foci formation; type: cell-based; settings: 10 μM, 48 h
Protocol: In situ hybridization was carried out to evaluate the effect of TAT-P3L on GGGGCC RNA foci formation in […]-expressing SK-N-MC cells. In brief, 0.8×10^5 SK-N-MC cells were seeded and grown on glass coverslips in 24-well plate. Ten micromolar of TAT-P3L or TAT-P3LS1 were added immediately after transfection of 1 μg of pAg3-(GGGGCC)2/66 plasmid. After 48 h, cells were fixed with 4% paraformaldehyde for 10 min and permeabilized with 0.5% Triton-X 100 for 5 min at room temperature. Cells were then washed with phosphate buffered saline treated with diethylpyrocarbonate (DEP-CPBS) three times, and hybridized with 40 nM denatured TYE563-labeled LNA probe (5′-TYE563-CCCGGCCCCGGCCCC-3′; SEQ ID NO:13; Exiqon, Inc) in hybridization buffer (50% formamide, 10% dextran sulfate, 2× saline-sodium citrate buffer (SSC), 50 mM sodium phosphate buffer) 6 h at 65° C. After washing once with 0.1% Tween-20/2×SSC for 5 min at room temperature, cell were further washed with 0.1×SSC 3 times at 65° C. for 10 min. Nuclei were counterstained with Hoechst 33342 (1 μg/ml, Thermo Fisher Scientific) prior to mounting coverslips. Images were obtained on an OLYMPUS FV1000 IX81-TIRF confocal microscope.

UAS-(GGGGCC)3 flies [8] = assay: External eye assay, control flies; type: in vivo, Drosophila; settings: GMR-Gal4/UAS-(GGGGCC)3 flies; 100 μM feeding
Protocol: as §1

UAS-(GGGGCC)3 flies [9] = assay: Lifespan assay, control flies; type: in vivo, Drosophila; settings: 50 μM in food

## P3: peptide DGKSKGIAYIEFK (SEQ ID NO:2), derived from RRM2 of NCL, inventors' previous work (synthetic peptide construct P3)
[1]
  inhibition of expanded CAG repeat-mediated nucleolar stress and neurodegeneration: specifically inhibited expanded CAG repeat-mediated nucleolar stress

## TAT-P3LMT19: TAT-P3L mutant carrying a single alanine substitution; mutant part SEQ ID NO:32 (YGRKKRRQRRRAEIRLVSKDGKSKGIAYIEFA; synthetic peptide construct TAT; synthetic peptide mutant PL3MT19)
[2]; 48 h
  suppression of (GGGGCC)66-induced cell death compared with P3L (structure-activity relationship study): same suppression effect as the P3L peptide

## TAT-P3LMT1: TAT-P3L mutant carrying a single alanine substitution; mutant part SEQ ID NO:14 (YGRKKRRQRRRAAIRLVSKDGKSKGIAYIEFK; synthetic peptide construct TAT; synthetic peptide mutant PL3MT1)
[2]; 48 h
  suppression of (GGGGCC)66-induced cell death compared with P3L (structure-activity relationship study): same suppression effect as the P3L peptide

## YGRKKRRQRRRTFIKVPQNQNGKSKGYAF [TAT-RRM3-P1]
[2]; when the dose was raised
  cytotoxicity elicited by the peptide by itself (LDH): elicited cytotoxicity

## AEIRLVSKDGKSKGIAYIEFK [P3L]
UAS-(GGGGCC)36 flies [3]
  eye degeneration (scar formation in eye): significantly suppressed neurodegeneration
Nucleophosmin (B23)
  subcellular localization of B23: restored the subcellular localization
UAS-(GGGGCC)36 flies [4]
  lifespan (in words): extended lifespan
UAS-(GGGGCC)36 flies [5]
  climbing defect: rescued locomotor deficit
NCL
  subcellular localization of NCL: restored the subcellular localization
UAS-(GGGGCC)3 flies [6]
  climbing ability of control flies: not found to be affecting the climbing ability

## TAT-RRM4-P1: TAT fusion peptide YGRKKRRQRRRRARIVTDRETGSSKGFGFVD (SEQ ID NO: 10), derived from RRM4 of NCL (synthetic peptide construct TAT-RRM4-P1)
[2]; 48 h
  effect on (GGGGCC)66-induced cell death (LDH enzyme activity in medium): did not demonstrate any modifying effect; also recorded: did not alter

## YGRKKRRQRRRAEIRLVSKDGKSKGIAYIEFK [TAT-P3L]
[2]; 48 h, concentration reducing LDH enzyme activity by 50% vs untreated control, read-out: IC50 in suppressing (GGGGCC)66-induced cell death
  IC50: 104 ± 24.6 nM
[7]
  RNA foci-like structure formation in control group: no RNA foci-like structure formed
UAS-(GGGGCC)3 flies [8]
  eye defect in control flies: did not cause any observable eye defect
UAS-(GGGGCC)3 flies [9]
  lifespan of control flies: did not alter the lifespan

## TAT-RRM1-P1: TAT fusion peptide YGRKKRRQRRRTGTNRKFGYVD (SEQ ID NO: 7), derived from RRM1 of NCL (synthetic peptide construct TAT-RRM1-P1)
[2]; 48 h
  effect on (GGGGCC)66-induced cell death (LDH enzyme activity in medium): did not demonstrate any modifying effect; also recorded: didn't alter

## YGRKKRRQRRRGGEDIKSRVEAASILYFIKKK [TAT-P3LS1, reference compound]
[7]
  RNA foci-like structure formation in control group: no RNA foci-like structure formed
